Measurements taken from PMC3465347, “Regulation of NF-κB Activation through a Novel PI-3K-Independent and PKA/Akt-Dependent Pathway in Human Umbilical Vein Endothelial Cells” (PLoS ONE, 2012).

Key:
[1] = system: NF-κB DNA-binding activity in HUVECs; assay: NF-κB activation assay (EMSA) in nuclear extracts; format: cell-based, human; conditions: wortmannin 100 µM or H-89 20 µM, 30 mins, then TNF-α 10 ng/ml
Method: The endothelial cells were subjected to the indicated treatments followed by induction with TNF-α for indicated time points or 30 mins. The cells were then washed with PBS and dislodged using a cell scraper. The cytoplasmic and nuclear extracts were prepared as described previously, [46].
NF-κB activation in the nuclear extracts of human endothelial cells was assessed by electrophoretic mobility shift assay (EMSA) as described previously, [46]. For supershift experiment, nuclear extracts prepared from unstimulated and TNF-α-stimulated cells were incubated with antibodies against the p50 or p65 subunit of NF-κB or -α-tubulin for 15 mins at 37°C before the complex was analyzed by EMSA. Addition of equal amount of radioactive-labelled probe to all the samples was indicated by the similar intensity of the unincorporated probe observed towards the end of the gel.

[2] = system: Akt phosphorylation in HUVECs; assay: Akt phosphorylation western blot; format: cell-based, human; conditions: wortmannin 100 µM or H-89 20 µM, 30 mins, then TNF-α 10 ng/ml 30 mins
Method: Nuclear and cytoplasmic extracts were fractionated on SDS-PAGE with equal amount of proteins per well and transferred onto PVDF membranes and those membranes were incubated with appropriate primary antibodies and treated with HRP conjugated secondary antibodies followed by detection with DAB-H2O2 system. β-tubulin, α-actin and Lamin B1 were used as loading controls. Antibodies against NF-κBp65, phosphoNF-κBp65, IκBα, phosphoIκBα, IKK-β, Akt, phosphoAkt (Ser473) and phosphoAkt (Thr308) were used.

PI-3K = PI-3K activity assay; format: cell-based, human; conditions: pretreatment, HUVECs
Source text: The catalytic domain of PI-3K was immunoprecipitated from the stimulated and unstimulated endothelial in presence and absence of various compound treatment using an anti-p85α (N-18) antibody. The immunoprecipated proteins were subjected to kinase activity assay using a PI substrate, diC8 followed by detection of the PI(3)P as per the instructions of the Class III PI-3kinase kit (Echelon, USA).

PKA = biological target: T1, PKA (Homo sapiens, UniProt P17612); assay: PKA activity assay; format: cell-based
T1 construct: PKA was immunoprecipitated from the total cell lysates of unstimulated and TNF-α-stimulated endothelial cells; endogenous in cells; host or cells: HUVEC (treated with MPTAG, SQ 22536, H-89 ± TNF-α), anti-PKAα immunoprecipitate
Source text: PKA was immunoprecipitated from the total cell lysates of unstimulated and TNF-α-stimulated endothelial cells in presence and absence of treatment with agents indicated in Figure 7 using anti-PKAα (W-18) antibody. The immunoprecipates were subjected to kinase activity assay using a Bisamide Rhodamine 110 peptide substrate as per the instructions of the Profluor PKA assay kit (Promega, USA).

[3] = system: TNF-α-induced ICAM-1 expression on human endothelial cells; design: method as in PMID 21315792; conditions: dose-dependent; cited from earlier work
[4] = system: TNF-α-induced VCAM-1 expression on human endothelial cells; design: method as in PMID 21315792; conditions: dose-dependent; cited from earlier work
[5] = system: TNF-α-induced E-selectin expression on human endothelial cells; design: method as in PMID 21315792; conditions: dose-dependent; cited from earlier work
[6] = system: adhesion of neutrophils to the endothelium monolayer; design: method as in PMID 21315792; conditions: dose-dependent; cited from earlier work

COC[C@H]1OC(=O)c2coc3c2[C@@]1(C)C1=C(C3=O)[C@@H]2CCC(=O)[C@@]2(C)C[C@H]1OC(C)=O [wortmannin, Wortmannin, reference compound]
TNF-α-induced NF-κB activation (EMSA), kinase inhibitor alone [1]: inhibited | TNF-α-induced Akt phosphorylation (Thr308), kinase inhibitor alone [2]: inhibited | TNF-α-induced PI-3K activity (PI-3K): abolished

Nc1ncnc2c1ncn2C1CCCO1 (centres unmarked) [SQ 22536, reference compound]
PKA activity in unstimulated HUVECs (PKA; SQ 22536 treatment alone): moderately suppressed

Cc1occc(=O)c1O[C@@H]1O[C@H](CO)[C@@H](O)[C@H](O)[C@H]1O [MPG, 2-methyl-pyran-4-one-3-O-β-D-glucopyranoside]
inhibition of TNF-α-induced ICAM-1 expression [3]: inhibited | inhibition of TNF-α-induced VCAM-1 expression [4]: inhibited | inhibition of TNF-α-induced E-selectin expression [5]: inhibited | inhibition of adhesion of neutrophils to the endothelium monolayer [6]: inhibited

O=S(=O)(NCCNC/C=C/c1ccc(Br)cc1)c1cccc2cnccc12 [H-89, reference compound]
TNF-α-induced NF-κB activation (EMSA), kinase inhibitor alone [1]: enhanced | TNF-α-induced Akt phosphorylation (Thr308), kinase inhibitor alone [2]: enhanced | PKA activity (PKA; H-89 treatment, even in presence of MPTAG): inhibited
